In patent US20210171948A1, “COMPOSITIONS AND METHODS FOR TARGETING GLYPICAN-2 IN THE TREATMENT OF CANCER” (Shepherd Therapeutics, Inc., priority 2019, published 2021):
Strand notation (5' to 3'): a small letter for the sugar, then the base; units joined by * are phosphorothioate-linked, units joined directly phosphodiester-linked; [ ] holds rarer units or linkages, { } end groups; capitals alone tell only the bases. d = 2'-deoxy (DNA); r = 2'-OH (RNA)

Legend:
GPC2 mRNA [1] = assay: GPC2 mRNA knockdown in neuroblastoma cell lines (Example 4); type: cell-based, human
Experimental: GPC2 mRNA knockdown was assessed in multiple neuroblastoma cell lines. Cells were transfected with either a scrambled control siRNA, with GPC2 siRNA sequences 3 or 5 from Table 7, or with siRNA sequences generated by Dharmacon (sequences 12-15 from Table 7) using the RNAiMAX Lipofectamine kit (Invitrogen, Carlsbad, Calif.) as previously described. Following a 96 hour incubation period, total RNA samples were collected to compare knockdown efficiency and viability was measured in parallel plated cells.
The extent of GPC2 mRNA reduction was assessed with additional GPC2 siRNA sequences in the CHP212 neuroblastoma cell line. Cells were transfected with either a scrambled control siRNA or with GPC2 siRNA sequences 3 or 5, or with siRNA sequences 6-11 (Sigma) using the RNAiMAX Lipofectamine kit (Invitrogen, Carlsbad, Calif.) as previously described. Following a 96 hour incubation period, total RNA samples were collected and viability was measured in parallel plated cells.
The extent of GPC2 mRNA reduction (knockdown) and corresponding protein level expression changes were assessed in three neuroblastoma cell lines following siRNA knockdown of GPC2. The CHP212 neuroblastoma cell line (FIG. 5A and FIG. 5D), the SH-SY5Y neuroblastoma cell line (FIG. 5B and FIG. 5E) and the CHLA90 neuroblastoma cell line (FIG. 5C and FIG. 5F) were transfected with GPC2 siRNA sequences 5 and 7 from Table 7 and a scrambled control siRNA using the RNAiMAX Lipofectamine kit (Invitrogen, Carlsbad, Calif.) as previously described. Following a 24, 48, or 72 hour incubation period, cells were washed and total RNA was isolated for measuring GPC2 mRNA expression. For protein analysis, cells were fixed, immunostained using an antibody against GPC2 protein, protein expression was measured via flow cytometry. As shown, GPC2 mRNA knockdown was observed beginning at the 24 hr time point and lasted for at least 72 hours. GPC2 protein expression started to decrease at the 48 hr time point.

GPC2 mRNA [2] = assay: GPC2 mRNA knockdown in neuroblastoma cell lines, representative data from a separate experiment (Tables 10-14); type: cell-based, human; parameters: concentration or dose not given beside the values
CHLA-90 cells [3] = assay: Cyclophosphamide IC50 in siRNA-transfected cells, Cell Titer Glo 2.0 viability (Example 7); type: cell-based
Experimental: (§1) GPC2 mRNA expression was reduced with the indicated siRNAs and changes in cell viability were assessed in multiple neuroblastoma cell lines. Cells were transfected with either a control siRNA or with GPC2 siRNA sequences 3, 5 or 7 from Table 7 using the RNAiMAX Lipofectamine kit (Invitrogen, Carlsbad, Calif.) as previously described in 96 wells for viability assays. Cyclophosphamide was added at increasing concentrations (0-20 uM) to transfected cells at 24 hr post transfection. Following a 72 hour incubation period, viability measurements were made using Cell Titer Glo 2.0.

CHP212 cells [4] = assay: as above; type: cell-based
Experimental: as §1

SH-SY5Y cells [5] = assay: as above; type: cell-based
Experimental: as §1

SK-N-BE2 cells [6] = assay: as above; type: cell-based
Experimental: as §1

CHLA-90 cells [7] = assay: Doxorubicin IC50 in siRNA-transfected cells, Cell Titer Glo viability (Example 8); type: cell-based
Experimental: as §1, with “reduced” for “reduced with the indicated siRNAs”, “with GPC-2” for “with GPC2”, “assays. Doxorubicin” for “assays. Cyclophosphamide”, “concentrations (0-5” for “concentrations (0-20”, “24 hours” for “24 hr”, “Titer Glo.” for “Titer Glo 2.0.”

CHP212 cells [8] = assay: as above; type: cell-based
Experimental: as §1, with “reduced” for “reduced with the indicated siRNAs”, “with GPC-2” for “with GPC2”, “assays. Doxorubicin” for “assays. Cyclophosphamide”, “concentrations (0-5” for “concentrations (0-20”, “24 hours” for “24 hr”, “Titer Glo.” for “Titer Glo 2.0.”

SH-SY5Y cells [9] = assay: as above; type: cell-based
Experimental: as §1, with “reduced” for “reduced with the indicated siRNAs”, “with GPC-2” for “with GPC2”, “assays. Doxorubicin” for “assays. Cyclophosphamide”, “concentrations (0-5” for “concentrations (0-20”, “24 hours” for “24 hr”, “Titer Glo.” for “Titer Glo 2.0.”

SK-N-BE2 cells [10] = assay: as above; type: cell-based
Experimental: as §1, with “reduced” for “reduced with the indicated siRNAs”, “with GPC-2” for “with GPC2”, “assays. Doxorubicin” for “assays. Cyclophosphamide”, “concentrations (0-5” for “concentrations (0-20”, “24 hours” for “24 hr”, “Titer Glo.” for “Titer Glo 2.0.”

CHLA-90 cells [11] = assay: Etoposide IC50 in siRNA-transfected cells, Cell Titer Glo 2.0 viability (Example 9); type: cell-based
Experimental: as §1, with “reduced” for “reduced with the indicated siRNAs”, “Etoposide” for “Cyclophosphamide”, “(0-15” for “(0-20”, “hours” for “hr”, “measurement” for “measurements”

CHP212 cells [12] = assay: as above; type: cell-based; conditions: CHP212 cells transfected with the labelled siRNA; etoposide added 24 hours post transfection, 72 hour incubation
Experimental: as §1, with “reduced” for “reduced with the indicated siRNAs”, “Etoposide” for “Cyclophosphamide”, “(0-15” for “(0-20”, “hours” for “hr”, “measurement” for “measurements”

SH-SY5Y cells [13] = assay: as above; type: cell-based
Experimental: as §1, with “reduced” for “reduced with the indicated siRNAs”, “Etoposide” for “Cyclophosphamide”, “(0-15” for “(0-20”, “hours” for “hr”, “measurement” for “measurements”

SK-N-BE2 cells [14] = assay: as above; type: cell-based
Experimental: as §1, with “reduced” for “reduced with the indicated siRNAs”, “Etoposide” for “Cyclophosphamide”, “(0-15” for “(0-20”, “hours” for “hr”, “measurement” for “measurements”

Substance: GPC2 siRNA 7: siRNA duplex: sense CUCCUUUCUGGUUCACACA[dT][dT] (SEQ ID NO: 215), anti-sense UGUGUGAACCAGAAAGGAG[dT][dT] (SEQ ID NO: 216) (sense rCrUrCrCrUrUrUrCrUrGrGrUrUrCrArCrArCrAdTdT; antisense rUrGrUrGrUrGrArArCrCrArGrArArArGrGrArGdTdT; listed as Homo sapiens)
- Time for which reduced GPC2 mRNA expression was sustained (GPC2 mRNA [1]; CHLA90 neuroblastoma cells (FIG. 5C)): 72 h
- Time point at which GPC2 mRNA knockdown was first observed (GPC2 mRNA [1]; CHP212, SH-SY5Y and CHLA90 neuroblastoma cell lines): 24 h
- Degree of GPC2 knockdown among sequences 3, 5, 6-11 (GPC2 mRNA [1]; CHP212 neuroblastoma cell line, 96 hour incubation (FIG. 4A)): greater
- Time for which reduced GPC2 mRNA expression was sustained (GPC2 mRNA [1]; CHP212 neuroblastoma cells (FIG. 5A)): 72 h
- Time for which reduced GPC2 mRNA expression was sustained (GPC2 mRNA [1]; SH-SY5Y neuroblastoma cells (FIG. 5B)): 72 h
- % KD; percent GPC2 mRNA reduction (knockdown) (GPC2 mRNA [2]; CHLA-90, compared to scrambled siRNA control): 65%
- % KD; percent GPC2 mRNA reduction (knockdown) (GPC2 mRNA [2]; CHLA-136, compared to scrambled siRNA control): 30%
- % KD; percent GPC2 mRNA reduction (knockdown) (GPC2 mRNA [2]; CHLA-172, compared to scrambled siRNA control): 20%
- % KD; percent GPC2 mRNA reduction (knockdown) (GPC2 mRNA [2]; CHP212, compared to scrambled siRNA control): 70%
- % KD; percent GPC2 mRNA reduction (knockdown) (GPC2 mRNA [2]; KELLY, compared to scrambled siRNA control): 73%
- % KD; percent GPC2 mRNA reduction (knockdown) (GPC2 mRNA [2]; SH-SY5Y, compared to scrambled siRNA control): 70%
- % KD; percent GPC2 mRNA reduction (knockdown) (GPC2 mRNA [2]; SK-N-BE2, compared to scrambled siRNA control): 69%
- % KD; percent GPC2 mRNA reduction (knockdown) (GPC2 mRNA [2]; SKNAS, compared to scrambled siRNA control): 64%
- Data Summary: effect of knockdown on sensitivity to cyclophosphamide (CHLA-90 cells [3]; CHLA-90): increases sensitivity to
- IC50 (CHLA-90 cells [3]; CHLA-90 cells transfected with the labelled siRNA, cyclophosphamide added 24 hr post transfection, 72 hour incubation): 10 µM
- Data Summary: effect of knockdown on sensitivity to cyclophosphamide (CHP212 cells [4]; CHP212): increases sensitivity to
- IC50 (CHP212 cells [4]; CHP212 cells transfected with the labelled siRNA, cyclophosphamide added 24 hr post transfection, 72 hour incubation): 1.2 µM
- Data Summary: effect of knockdown on sensitivity to cyclophosphamide (SH-SY5Y cells [5]; SH-SY5Y): increases sensitivity to
- IC50 (SH-SY5Y cells [5]; SH-SY5Y cells transfected with the labelled siRNA, cyclophosphamide added 24 hr post transfection, 72 hour incubation): 0.94 µM
- Data Summary: effect of knockdown on sensitivity to cyclophosphamide (SK-N-BE2 cells [6]; SK-N-BE2): increases sensitivity to
- IC50 (SK-N-BE2 cells [6]; SK-N-BE2 cells transfected with the labelled siRNA, cyclophosphamide added 24 hr post transfection, 72 hour incubation): 0.41 µM
- Data Summary: effect of knockdown on sensitivity to doxorubicin (CHLA-90 cells [7]; CHLA-90): increases sensitivity to
- IC50 (CHLA-90 cells [7]; CHLA-90 cells transfected with the labelled siRNA, doxorubicin added 24 hours post transfection, 72 hour incubation): 0.13 µM
- Data Summary: effect of knockdown on sensitivity to doxorubicin (CHP212 cells [8]; CHP212): does not increase sensitivity
- IC50 (CHP212 cells [8]; CHP212 cells transfected with the labelled siRNA, doxorubicin added 24 hours post transfection, 72 hour incubation): 0.02 µM
- Data Summary: effect of knockdown on sensitivity to doxorubicin (SH-SY5Y cells [9]; SH-SY5Y): KD with sequence 7 increases
- IC50 (SH-SY5Y cells [9]; SH-SY5Y cells transfected with the labelled siRNA, doxorubicin added 24 hours post transfection, 72 hour incubation): 0.03 µM
- Data Summary: effect of knockdown on sensitivity to doxorubicin (SK-N-BE2 cells [10]; SK-N-BE2): increases sensitivity to
- IC50 (SK-N-BE2 cells [10]; SK-N-BE2 cells transfected with the labelled siRNA, doxorubicin added 24 hours post transfection, 72 hour incubation): 0.2 µM
- Data Summary: effect of knockdown on sensitivity to etoposide (CHLA-90 cells [11]; CHLA-90): increases sensitivity to etoposide
- IC50 (CHLA-90 cells [11]; CHLA-90 cells transfected with the labelled siRNA, etoposide added 24 hours post transfection, 72 hour incubation): 0.13 µM
- IC50 (CHP212 cells [12]): 0.02 µM
- Data Summary: effect of knockdown on sensitivity to etoposide (SH-SY5Y cells [13]; SH-SY5Y): 7 increases sensitivity to etoposide
- IC50 (SH-SY5Y cells [13]; SH-SY5Y cells transfected with the labelled siRNA, etoposide added 24 hours post transfection, 72 hour incubation): 0.03 µM
- Data Summary: effect of knockdown on sensitivity to etoposide (SK-N-BE2 cells [14]; SK-N-BE2): 7 increases sensitivity to etoposide
- IC50 (SK-N-BE2 cells [14]; SK-N-BE2 cells transfected with the labelled siRNA, etoposide added 24 hours post transfection, 72 hour incubation): 0.2 µM
